pIC50: −log10 of the molar value. Where two headings read alike, the source gives them in different places.
Assays:
[1] = molecular target: T1, PI3K (Homo sapiens, UniProt P48736); test: Fluorescence polarization assay for PI3K; type: biochemical; settings: read-out: PI3 Kinase γ IC50
T1 construct: PI3 Kinase γ IC50; other: PI3 Kinase γ; other: PI3 Kinase γ isoform, fluorescence polarization
Outline: (§1)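 Fluorescence-polarization competition readout: after 30–60 min of PIP2/ATP turnover in 1% DMSO, a stop mix with GST-GRP (70 nM) and red probe (10 nM) was added.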

[2] = molecular target: T2, PI3K (Homo sapiens, UniProt P42336); test: Fluorescence polarization assay for PI3K; type: biochemical; settings: read-out: PI3 Kinase α IC50
T2 construct: PI3 Kinase α IC50; other: PI3 Kinase α; other: PI3 Kinase α isoform, fluorescence polarization
T2 sequence (P42336 whole entry, canonical isoform): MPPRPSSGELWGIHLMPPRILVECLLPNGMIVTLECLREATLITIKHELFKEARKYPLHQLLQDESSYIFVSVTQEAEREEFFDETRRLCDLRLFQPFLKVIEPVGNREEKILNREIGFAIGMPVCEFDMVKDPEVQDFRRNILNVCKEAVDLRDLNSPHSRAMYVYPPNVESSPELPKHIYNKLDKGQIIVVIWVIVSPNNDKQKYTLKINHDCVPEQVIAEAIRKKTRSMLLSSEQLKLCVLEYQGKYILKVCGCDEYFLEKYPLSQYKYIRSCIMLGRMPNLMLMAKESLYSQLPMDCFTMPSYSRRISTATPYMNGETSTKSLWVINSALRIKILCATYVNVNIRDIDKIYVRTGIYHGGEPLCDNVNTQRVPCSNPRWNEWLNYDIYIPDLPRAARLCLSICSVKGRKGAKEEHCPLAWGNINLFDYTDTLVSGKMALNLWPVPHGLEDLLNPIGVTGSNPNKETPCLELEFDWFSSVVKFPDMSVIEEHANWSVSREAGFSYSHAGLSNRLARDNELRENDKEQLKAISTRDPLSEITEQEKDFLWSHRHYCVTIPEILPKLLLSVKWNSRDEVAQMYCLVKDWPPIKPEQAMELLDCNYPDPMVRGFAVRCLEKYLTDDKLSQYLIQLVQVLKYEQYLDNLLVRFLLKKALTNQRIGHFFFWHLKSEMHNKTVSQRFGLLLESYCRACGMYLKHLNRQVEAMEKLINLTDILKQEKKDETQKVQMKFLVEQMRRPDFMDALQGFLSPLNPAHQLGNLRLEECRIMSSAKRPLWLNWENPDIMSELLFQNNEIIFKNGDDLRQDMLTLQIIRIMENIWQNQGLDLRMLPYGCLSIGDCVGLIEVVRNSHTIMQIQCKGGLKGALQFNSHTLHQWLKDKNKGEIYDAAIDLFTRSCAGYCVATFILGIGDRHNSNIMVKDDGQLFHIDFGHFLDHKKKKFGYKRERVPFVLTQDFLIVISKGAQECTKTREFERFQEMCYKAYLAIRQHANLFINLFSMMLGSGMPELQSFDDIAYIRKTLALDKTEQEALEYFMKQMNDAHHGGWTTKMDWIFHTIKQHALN
Outline: as §1

[3] = molecular target: T3, Human mTOR (FLAG-TOR) (Homo sapiens, UniProt P42345); test: Human mTOR kinase assay with purified enzyme, DELFIA format; type: biochemical
T3 construct: FLAG
Outline: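 DELFIA readout: Eu-anti-P(T389)-S6K antibody (40 ng/mL, 1 h) on captured His6-S6K from the stopped reaction. Kinase step used purified FLAG-tagged human mTOR with test compound in HEPES (pH 7.4)/MnCl2/DTT buffer, 2 h at room temperature (linear 1–6 h), terminated by EDTA/EGTA.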

[4] = tested on: prostate line LNCap; test: In vitro cell culture growth assay (MTS), LNCap; type: cell-based; settings: Homo sapiens, LNCaP, 72 h, LNCap cells, three days after drug treatment
Outline: (§2)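 Viable cell density is assessed three days after inhibitor addition via MTS conversion, normalised to vehicle-treated cells.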

[5] = tested on: breast line MDA468; test: In vitro cell culture growth assay (MTS), MDA468; type: cell-based; settings: Homo sapiens, 72 h, MDA468 cells, three days after drug treatment
Outline: as §2

[6] = PI3 Kinase γ isoform, fluorescence polarization
[7] = PI3 Kinase α isoform, fluorescence polarization
[8] = purified human mTOR enzyme, DELFIA format

T1 sequence (P48736 whole entry, canonical isoform): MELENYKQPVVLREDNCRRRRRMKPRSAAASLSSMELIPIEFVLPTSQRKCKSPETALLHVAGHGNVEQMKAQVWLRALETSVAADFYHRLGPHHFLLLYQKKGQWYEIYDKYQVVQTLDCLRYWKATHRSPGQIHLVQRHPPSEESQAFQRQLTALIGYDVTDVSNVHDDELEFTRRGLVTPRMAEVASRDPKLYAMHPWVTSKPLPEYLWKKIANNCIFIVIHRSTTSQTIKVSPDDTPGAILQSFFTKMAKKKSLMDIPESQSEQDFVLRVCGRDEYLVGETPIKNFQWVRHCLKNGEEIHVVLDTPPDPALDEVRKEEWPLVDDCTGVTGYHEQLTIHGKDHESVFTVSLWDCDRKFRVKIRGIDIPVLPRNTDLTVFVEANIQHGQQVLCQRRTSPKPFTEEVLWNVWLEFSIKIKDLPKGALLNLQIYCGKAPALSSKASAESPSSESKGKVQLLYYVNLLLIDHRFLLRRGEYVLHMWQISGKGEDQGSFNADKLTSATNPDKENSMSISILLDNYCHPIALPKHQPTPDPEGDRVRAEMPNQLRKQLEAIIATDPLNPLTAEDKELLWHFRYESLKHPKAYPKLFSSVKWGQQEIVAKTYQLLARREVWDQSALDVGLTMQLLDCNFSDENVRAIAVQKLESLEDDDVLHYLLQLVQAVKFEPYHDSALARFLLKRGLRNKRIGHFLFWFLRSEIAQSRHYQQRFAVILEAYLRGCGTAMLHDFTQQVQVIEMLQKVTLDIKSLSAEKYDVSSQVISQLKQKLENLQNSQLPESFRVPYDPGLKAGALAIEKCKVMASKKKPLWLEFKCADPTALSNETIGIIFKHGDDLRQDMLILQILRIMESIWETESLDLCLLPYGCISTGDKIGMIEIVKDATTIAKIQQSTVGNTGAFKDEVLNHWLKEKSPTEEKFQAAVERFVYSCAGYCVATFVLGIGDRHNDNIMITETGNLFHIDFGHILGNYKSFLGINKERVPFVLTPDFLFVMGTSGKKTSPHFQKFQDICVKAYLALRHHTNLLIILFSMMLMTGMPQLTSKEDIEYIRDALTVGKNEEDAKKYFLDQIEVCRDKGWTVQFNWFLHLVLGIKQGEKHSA

pIC50 ([1]; PI3 Kinase γ) | pIC50 ([2]; PI3 Kinase α) | pIC50 [3] | pIC50 [4] | pIC50 [1, 6] | pIC50 [2, 7] | pIC50 [3, 8] | SMILES | pIC50 [5]
6.28 | 7.64 | 9.98 | > 9.00 | – | – | – | CCn1ncc2c(N3CC4CCC(C3)O4)nc(-c3ccc(NC(=O)Nc4ccc(C(N)=O)cc4)cc3)nc21 [Example 285, 4-[({4-[1-ethyl-4-(8-oxa-3-azabicyclo[3.2.1]oct-3-yl)-1H-pyrazolo[3,4-d]pyrimidin-6-yl]phenyl}carbamoyl)amino]benzamide] | 9.00
4.83 | 6.57 | 9.05 | 7.77 | – | – | – | CCn1ncc2c(N3CC4CCC(C3)O4)nc(-c3ccc(NC(=O)Nc4ccc(NC)nc4)cc3)nc21 [Example 286, 1-{4-[1-ethyl-4-(8-oxa-3-azabicyclo[3.2.1]oct-3-yl)-1H-pyrazolo[3,4-d]pyrimidin-6-yl]phenyl}-3-[6-(methylamino)pyridin-3-yl]urea] | 6.70
5.84 | 6.79 | 9.39 | 7.43 | – | – | – | CCn1ncc2c(N3CC4CCC(C3)O4)nc(-c3ccc(NC(=O)Nc4ccc(N)nc4)cc3)nc21 [Example 287, 1-(6-aminopyridin-3-yl)-3-{4-[1-ethyl-4-(8-oxa-3-azabicyclo[3.2.1]oct-3-yl)-1H-pyrazolo[3,4-d]pyrimidin-6-yl]phenyl}urea] | 6.70
6.27 | 7.28 | 9.24 | > 9.00 | – | – | – | CCn1ncc2c(N3CC4CCC(C3)O4)nc(-c3ccc(NC(=O)Nc4ccc(N5CCNCC5)cc4)cc3)nc21 [Example 288, 1-{4-[1-ethyl-4-(8-oxa-3-azabicyclo[3.2.1]oct-3-yl)-1H-pyrazolo[3,4-d]pyrimidin-6-yl]phenyl}-3-(4-piperazin-1-ylphenyl)urea] | 7.30
6.15 | 6.96 | 9.48 | > 9.00 | – | – | – | CCn1ncc2c(N3CC4CCC(C3)O4)nc(-c3ccc(NC(=O)Nc4ccc(C(=O)NN(C)C)cc4)cc3)nc21 [Example 289, 1-{4-[(2,2-dimethylhydrazino)carbonyl]phenyl}-3-{4-[1-ethyl-4-(8-oxa-3-azabicyclo[3.2.1]oct-3-yl)-1H-pyrazolo[3,4-d]pyrimidin-6-yl]phenyl}urea] | > 9.00
6.12 | 6.99 | 9.76 | > 9.00 | – | – | – | CCn1ncc2c(N3CC4CCC(C3)O4)nc(-c3ccc(NC(=O)Nc4ccc(C(=O)NN5CCCC5)cc4)cc3)nc21 [Example 290, 4-[({4-[1-ethyl-4-(8-oxa-3-azabicyclo[3.2.1]oct-3-yl)-1H-pyrazolo[3,4-d]pyrimidin-6-yl]phenyl}carbamoyl)amino]-N-pyrrolidin-1-ylbenzamide] | 8.40
< 5.00 | 5.21 | 8.05 | 6.77 | – | – | – | O=C(Nc1ccc(-c2nc(N3C[C@@H]4C[C@H]3CO4)c3cnn(CC(F)(F)F)c3n2)cc1)OCCO [Example 291, 2-hydroxyethyl (4-{4-[(1S,4S)-2-oxa-5-azabicyclo[2.2.1]hept-5-yl]-1-(2,2,2-trifluoroethyl)-1H-pyrazolo[3,4-d]pyrimidin-6-yl}phenyl)carbamate] | 6.52
< 5.00 | 5.68 | 8.26 | 7.10 | – | – | – | CNC(=O)Nc1ccc(-c2nc(N3C[C@@H]4C[C@H]3CO4)c3cnn(CC(F)(F)F)c3n2)cc1 [Example 292, 1-methyl-3-(4-{4-[(1S,4S)-2-oxa-5-azabicyclo[2.2.1]hept-5-yl]-1-(2,2,2-trifluoroethyl)-1H-pyrazolo[3,4-d]pyrimidin-6-yl}phenyl)urea] | 6.52
< 5.00 | 6.22 | 8.90 | 7.77 | – | – | – | O=C(Nc1ccc(-c2nc(N3C[C@@H]4C[C@H]3CO4)c3cnn(CC(F)(F)F)c3n2)cc1)Nc1cccnc1 [Example 293, 1-(4-{4-[(1S,4S)-2-oxa-5-azabicyclo[2.2.1]hept-5-yl]-1-(2,2,2-trifluoroethyl)-1H-pyrazolo[3,4-d]pyrimidin-6-yl}phenyl)-3-pyridin-3-ylurea] | 7.30
5.52 | 6.66 | 9.11 | > 9.00 | – | – | – | O=C(Nc1ccc(CO)cc1)Nc1ccc(-c2nc(N3C[C@@H]4C[C@H]3CO4)c3cnn(CC(F)(F)F)c3n2)cc1 [Example 294, 1-[4-(hydroxymethyl)phenyl]-3-(4-{4-[(1S,4S)-2-oxa-5-azabicyclo[2.2.1]hept-5-yl]-1-(2,2,2-trifluoroethyl)-1H-pyrazolo[3,4-d]pyrimidin-6-yl}phenyl)urea] | 9.00
5.33 | 6.39 | 8.63 | 9.00 | – | – | – | CN1CCN(c2ccc(NC(=O)Nc3ccc(-c4nc(N5C[C@@H]6C[C@H]5CO6)c5cnn(CC(F)(F)F)c5n4)cc3)cc2)CC1 [Example 295, 1-[4-(4-methylpiperazin-1-yl)phenyl]-3-(4-{4-[(1S,4S)-2-oxa-5-azabicyclo[2.2.1]hept-5-yl]-1-(2,2,2-trifluoroethyl)-1H-pyrazolo[3,4-d]pyrimidin-6-yl}phenyl)urea] | 7.89
– | – | – | > 9.00 | 5.45 | 6.56 | 9.26 | O=C(Nc1ccc(CCO)cc1)Nc1ccc(-c2nc(N3C[C@@H]4C[C@H]3CO4)c3cnn(CC(F)(F)F)c3n2)cc1 [Example 297, 1-[4-(2-hydroxyethyl)phenyl]-3-(4-{4-[(1S,4S)-2-oxa-5-azabicyclo[2.2.1]hept-5-yl]-1-(2,2,2-trifluoroethyl)-1H-pyrazolo[3,4-d]pyrimidin-6-yl}phenyl)urea] | 8.40
– | – | – | > 9.00 | 4.98 | 5.91 | 8.90 | O=C(Nc1ccc(-c2nc(N3C[C@@H]4C[C@H]3CO4)c3cnn(CC(F)(F)F)c3n2)cc1)Nc1ccc(N2CCOCC2)cc1 [Example 298, 1-(4-morpholin-4-ylphenyl)-3-(4-{4-[(1S,4S)-2-oxa-5-azabicyclo[2.2.1]hept-5-yl]-1-(2,2,2-trifluoroethyl)-1H-pyrazolo[3,4-d]pyrimidin-6-yl}phenyl)urea] | 9.00
– | – | – | 8.00 | < 5.00 | 4.99 | 8.55 | O=C(Nc1ccc(-c2nc(N3C[C@@H]4C[C@H]3CO4)c3cnn(CC(F)(F)F)c3n2)cc1)Nc1ccc(N2CCOCC2)nc1 [Example 299, 1-(6-morpholin-4-ylpyridin-3-yl)-3-(4-{4-[(1S,4S)-2-oxa-5-azabicyclo[2.2.1]hept-5-yl]-1-(2,2,2-trifluoroethyl)-1H-pyrazolo[3,4-d]pyrimidin-6-yl}phenyl)urea] | 7.38
– | – | – | 9.00 | 5.28 | 6.24 | 8.26 | CN(C)CCOc1ccc(NC(=O)Nc2ccc(-c3nc(N4C[C@@H]5C[C@H]4CO5)c4cnn(CC(F)(F)F)c4n3)cc2)cc1 [Example 300, 1-{4-[2-(dimethylamino)ethoxy]phenyl}-3-(4-{4-[(1S,4S)-2-oxa-5-azabicyclo[2.2.1]hept-5-yl]-1-(2,2,2-trifluoroethyl)-1H-pyrazolo[3,4-d]pyrimidin-6-yl}phenyl)urea] | 7.92
– | – | – | > 9.00 | 6.07 | 6.79 | 9.84 | COC1CCC(n2ncc3c(N4CC5CCC(C4)O5)nc(-c4ccc(NC(=O)Nc5ccncc5)cc4)nc32)CC1 (centres unmarked) [Example 303, 1-{4-[1-(4-methoxycyclohexyl)-4-(8-oxa-3-azabicyclo[3.2.1]oct-3-yl)-1H-pyrazolo[3,4-d]pyrimidin-6-yl]phenyl}-3-pyridin-4-ylurea] | 9.00
– | – | – | > 9.00 | 5.82 | 6.74 | 9.60 | COC1CCC(n2ncc3c(N4CC5CCC(C4)O5)nc(-c4ccc(NC(=O)Nc5ccc(N6CCNCC6)cc5)cc4)nc32)CC1 (centres unmarked) [Example 305, 1-{4-[1-(4-methoxycyclohexyl)-4-(8-oxa-3-azabicyclo[3.2.1]oct-3-yl)-1H-pyrazolo[3,4-d]pyrimidin-6-yl]phenyl}-3-(4-piperazin-1-ylphenyl)urea] | 9.00
– | – | – | > 9.00 | 5.90 | 7.06 | 10.10 | COC1CCC(n2ncc3c(N4CC5CCC(C4)O5)nc(-c4ccc(NC(=O)Nc5ccc(C(N)=O)cc5)cc4)nc32)CC1 (centres unmarked) [Example 306, 4-[({4-[1-(4-methoxycyclohexyl)-4-(8-oxa-3-azabicyclo[3.2.1]oct-3-yl)-1H-pyrazolo[3,4-d]pyrimidin-6-yl]phenyl}carbamoyl)amino]benzamide] | 8.10
– | – | – | > 9.00 | 5.30 | 6.39 | 9.84 | COC1CCC(n2ncc3c(N4CC5CCC(C4)O5)nc(-c4ccc(NC(=O)Nc5ccc(C(=O)NN6CCCC6)cc5)cc4)nc32)CC1 (centres unmarked) [Example 307, 4-[({4-[1-(4-methoxycyclohexyl)-4-(8-oxa-3-azabicyclo[3.2.1]oct-3-yl)-1H-pyrazolo[3,4-d]pyrimidin-6-yl]phenyl}carbamoyl)amino]-N-pyrrolidin-1-ylbenzamide] | 8.70

Source: patent US8129371B2, “Thienopyrimidine and pyrazolopyrimidine compounds and their use as mTOR kinase and PI3 kinase inhibitors” (Wyeth LLC, priority 2007, dated 2012)
